Patent US12296365B2, “Peroxyformic acid compositions for membrane filtration cleaning” (ECOLAB USA INC., priority 2015, dated 2025)

Assays:
[1] = RO membrane compatibility soak, overall conclusion; details: 300 ppm, simulated 1 year
[2] = RO membrane compatibility soak, clean water flux and salt rejection; details: Koch HRX; 57 ppm, simulated 3 Years, soak 234 hr, 77 F
Protocol: In particular, the effects of PFA on reverse osmosis members which contain a polyamide structure in comparison with known control chemicals was tested. Three different membranes were tested including Koch HRX, Hydranautics CPAS and Hydranautics ESPA2+. Membranes were soaked in duplicate, in chemistries according to Table 4.
Membranes were then conditioned in Ultrasil 110 at a pH of 11 for 90 minutes at 50° C., followed by a rinse in DI water.
Each of the chemistries, with the exception of PFA was refreshed daily. PFA was refreshed hourly. After the simulated exposure the membranes are rinsed with DI water and placed on the Flat Sheet Membrane skid (Model M20). The membranes were rinsed with DI water for 24 hours at standard UF pressure and temperature. Once 24 hours was completed the membranes were subjected to alkaline conditioning step until solution pH is 11. 15.14 grams of NaCl was added to the recirculating water (2000 ppm NaCl) and the system was allowed to continue circulating. The conductivity of each permeate tube and feed was then measured and recorded and shown as percent rejection. The percent rejection was determined by (conductivity of the feed−conductivity of the permeate)/(conductivity of the feed).

Row | Structure (SMILES) | flux and salt rejection results versus control (in words) [1] | Water Flux (LMH) Peracetic acid [2]
1 | O=COO [PFA, peroxyformic acid] | comparable results to that of the commercially-available control peroxyacetic acid compositions at 3 years | 
2 | CC(=O)OO [Peracetic acid] |  | 75.22 LMH
